Data as given in US10669545B2, “Tumor cell malignant transformation suppressor and anti-tumor agent” (JAPAN SCIENCE AND TECHNOLOGY AGENCY, priority 2015, dated 2020).

Key:
Assay type in all cases: cell-based, human
[1] = system: A375 cells; assay: Annexin V-positive cells, A375 cells; settings: UO126 10 μM or oxaliplatin 20 μM for 48 hours, compared with PLX4032 case
Method: The percentage of Annexin V-positive cells was measured as follows. First, FITC labeled Annexin V (manufactured by MBL, Nagoya, Japan) and Hoechst33342 were added to each cell and incubated for 40 minutes. Next, a stained state of the incubated cells was analyzed by using DAPI filter and FITC filter of an imaging cytometer, “In Cell Analyzer 2000” (manufactured by GE healthcare). Percentage (%) of […] was determined by In Cell Analyzer Workstation 3.7 (manufactured by GE healthcare). The statistical difference was determined by the Tukey's multiple comparisons of means test (**: P<0.01, *: P<0.05).
Next, the influence of knockdown of endogenous ZIC5, and PDGFD and ITGA6, which are downstream factors, on a decrease in cell proliferation by PLX4032 and induction of apoptosis was examined. […] Next, the treated cells were added to FITC labeled Annexin V (manufactured by MBL, Nagoya, Japan) and Hoechst33342 and incubated for 40 minutes. […]
(§1) The statistical difference was determined by the Tukey's multiple comparisons of means test (**: P<0.01, *: P<0.05).

[2] = system: stably Zic5 gene-expressed line (SK-MEL-28 cells); assay: Annexin V-positive cells, stably Zic5 gene-expressed line; settings: WP1066 10 μM for 24 hours; not shown
Method: PLX4032 was dissolved in DMSO to be used as a solution, and a line added to an equal amount of DMSO (DMSO treatment) was used as a control. The result of a relative cell number (n=3) in which the number of cells of the cells in which the stably Flag-expressed line was treated with PLX4032 (in the drawing, “+” on the “PLX4032” section, the same applies to the following examples), or the cells treated with DMSO (in the drawing, “−” on the “PLX4032” section, the same applies to the following examples) was set to 1 is shown in FIG. 30. The statistical difference was determined by the Tukey's multiple comparisons of means test (**: P<0.01, *: P<0.05). […]
The percentage of Annexin V-positive cells was measured as follows. […] Next, a stained state of the incubated cells was analyzed by using DAPI filter and FITC filter of an imaging cytometer, “In Cell Analyzer 2000” (manufactured by GE healthcare). Percentage (%) of […] was determined by In Cell Analyzer Workstation 3.7 (manufactured by GE healthcare). The statistical difference was determined by the Tukey's multiple comparisons of means test (**: P<0.01, *: P<0.05).
as §1

[3] = system: pro-PDGFD; assay: Western blotting of pro-PDGFD; settings: A375 cells; 24 hours; FAK inhibitor I 0-5 μM, WP1066 0-4 μM
Text: Because phosphorylation of focal adhesion kinase (FAK), which is activated at Focal adhesion, has been associated with melanoma malignancy (refer to NPL 19), FAK change by ZIC5 was examined. Furthermore, focusing on Integrin, alpha 6 (ITGA6) and platelet-derived growth factor D (PDGFD) among the Focal adhesion-related genes in the altered genes by Zic5 knockdown, change in cells was examined. Specifically, a level of phosphorylated FAK (pFAK), total FAK (FAK), ITGA6, pro-PDGFD, and β-actin in A375 cells transfected with siZIC5 or siNeg was assessed by western blotting. Western blotting was performed in the same manner as above except that anti-pFAK antibody (manufactured by Signalway Antibody), anti-FAK antibody (manufactured by Acris), anti-β-actin antibody (manufactured by Sigma), anti-ITGA6 antibody (manufactured by GeneTex), and anti-PDGFD antibody (manufactured by Santa Cruz) were used.
The expression level of PDGFD gene and Zic5 gene in the obtained cells was measured by western blotting using GAPDH as an internal control. […]
A375 cells were treated in a medium in which a concentration of a FAK inhibitor I (manufactured by Calbiochem) was 0, 1, 2.5, or 5 μM for 24 hours, and the level of ZIC5, pro-PDGFD, pERK, and β-actin was measured by western blotting. […]

[4] = system: ZIC5; assay: Western blotting of ZIC5; settings: A375 cells; 24 hours; FAK inhibitor I 0-5 μM, WP1066 0-4 μM, IL-6 0-20 ng/mL
Method: The expression level of PDGFD gene and Zic5 gene in the obtained cells was measured by western blotting using GAPDH as an internal control. Western blotting was performed according to a method of Kanemaru et al. (refer to NPL 13) using anti-ZIC5 antibody (manufactured by Aviva systems biology), anti-PDGFD antibody (manufactured by Santa Cruz), and anti-GAPDH antibody (manufactured by Cell Signaling).
(§2) A375 cells were treated in a medium in which a concentration of a FAK inhibitor I (manufactured by Calbiochem) was 0, 1, 2.5, or 5 μM for 24 hours, and the level of ZIC5, pro-PDGFD, pERK, and β-actin was measured by western blotting. Western blotting was performed in the same manner as above except that anti-ZIC5 antibody (manufactured by Aviva systems biology), anti-PDGFD antibody (manufactured by Santa Cruz), anti-pERK antibody (manufactured by Cell Signaling), and anti-β-actin antibody (manufactured by Sigma) were used.
A375 cells were treated in a medium in which a concentration of the Stat3 inhibitor, WP1066 (manufactured by Santa Cruz, Dallas, Tex.) was 0, 1, 1.5, 2, 2.5, 3, or 4 μM for 24 hours, and then western blotting was performed to assess the level of ZIC5, pro-PDGFD, pSTAT3, STAT3, and GAPDH. […]

[5] = system: total STAT3 (STAT3); assay: Western blotting of total STAT3; settings: A375 cells; 24 hours; WP1066 0-4 μM, IL-6 0-20 ng/mL
Method: (§3) A375 cells were treated in a medium in which a concentration of the Stat3 inhibitor, WP1066 (manufactured by Santa Cruz, Dallas, Tex.) was 0, 1, 1.5, 2, 2.5, 3, or 4 μM for 24 hours, and then western blotting was performed to assess the level of ZIC5, pro-PDGFD, pSTAT3, STAT3, and GAPDH. Western blotting was performed in the same manner as above except that anti-ZIC5 antibody (manufactured by Aviva systems biology), anti-PDGFD antibody (manufactured by Santa Cruz), anti-pSTAT3 antibody (manufactured by Cell Signaling), STAT3 antibody (manufactured by BD Biosciences), and anti-GAPDH antibody (manufactured by Cell Signaling) were used.
as §3, with “Interleukin-6 (IL-6)” for “the Stat3 inhibitor, WP1066”, “Novus Biologicals)” for “Santa Cruz, Dallas, Tex.)”, “10,” for “1, 1.5, 2, 2.5, 3,”, “20 ng/mL” for “4 μM”, “anti-pERK” for “anti-PDGFD”, “Cell Signaling),” for “Santa Cruz),”

[6] = system: phosphorylated Stat3 (pStat3); assay: Western blotting of phosphorylated Stat3; settings: A375 cells; 24 hours; WP1066 0-4 μM, IL-6 0-20 ng/mL
Method: as §3
as §3, with “Interleukin-6 (IL-6)” for “the Stat3 inhibitor, WP1066”, “Novus Biologicals)” for “Santa Cruz, Dallas, Tex.)”, “10,” for “1, 1.5, 2, 2.5, 3,”, “20 ng/mL” for “4 μM”, “anti-pERK” for “anti-PDGFD”, “Cell Signaling),” for “Santa Cruz),”

[7] = system: phosphorylated MLC2 (ppMLC2); assay: Western blotting of phosphorylated MLC2; settings: stably Zic5 gene-expressed line treated with ROCK inhibitor; not shown
Method: Myosin light chain 2 (MLC2) is known as an important factor for enhancing melanoma motility. It is known that MLC2 is activated through phosphorylation and enhances cell motility by enhancing actomyosin contraction (refer to NPLs 14 and 15). A protein level of phosphorylated MLC2 (ppMLC2), MLC2, and GAPDH of each cell was measured by western blotting. Western blotting was performed according to a method of Kanemaru et al. (refer to NPL 13) using anti-ppMLC2 antibody, anti-MLC2 antibody, and anti-GAPDH antibody (all manufactured by Cell Signaling).
Motility of melanoma cells in a case of siRNA-mediated knockdown of endogenous Zic5 gene was examined by performing Transwell Migration Assay. Specifically, SK-MEL-28 cells and A375 cells, which are melanoma cell lines, were transfected with siZIC5#1, siZIC5#2, siNeg#1, or siNeg#2 described in Table 2 in the same manner as Example 1. In the same manner as above, Transwell Migration Assay was performed with the cells transfected with each siRNA, and then the number of migrated cells was counted. […] The protein level of ppMLC2, MLC2, and GAPDH in the cells in which SK-MEL-28 cells were transfected with siRNA was measured by western blotting. The result of western blotting with SK-MEL-28 cells is shown at the bottom of FIG. 9.
The protein level of ppMLC2, MLC2, and GAPDH in each cell was measured by western blotting in the same manner as above.

[8] = system: stably Zic5 gene-expressed line (SK-MEL-28 cells); assay: Transwell Migration Assay, stably Zic5 gene-expressed line; settings: treated or non-treated with ROCK inhibitor
Method: Specifically, the stably Zic5 gene-expressed line and the stably Flag-expressed line were seeded in a 24-well plate into which an insert with 8-μm sized pores (manufactured by BD Biosciences) was put and were cultured in RPMI 1640 medium containing 10% FBS, and then the number of migrated cells was counted.
The influence of suppressing MLC2 phosphorylation on migration ability of cells was analyzed. Specifically, Transwell Migration Assay was performed in the same manner as above with the stably Zic5 gene-expressed line and the stably Flag-expressed line in a state of being treated or non-treated with a ROCK inhibitor (Y27632), and then the number of migrated cells was counted.
The number of migrated cells was normalized to a total number of viable cells. A relative cell number (n=3) in which the number of migrated cells transfected with siNeg#1 of each cell was set to 1 is shown in FIG. 29. The statistical difference was determined by the Tukey's multiple comparisons of means test (**: P<0.01, *: P<0.05).

[9] = system: phosphorylated ERK1/2 (Thr202/204) (pERK); assay: Western blotting of phosphorylated ERK1/2; settings: A375 cells; 24 hours; FAK inhibitor I 0-5 μM, IL-6 0-20 ng/mL
Method: Western blotting was performed in the same manner as above except that anti-pAKT antibody (manufactured by Cell Signaling), anti-AKT antibody (manufactured by Cell Signaling), anti-pERK antibody (manufactured by Cell Signaling), anti-ERK antibody (manufactured by Cell Signaling), and anti-β-actin antibody (manufactured by Sigma) were used.
vemR-1 to 3 cells and HT144 cells were treated with DMSO or PLX4032 solution (which was dissolved in DMSO to become 5 μM) for 48 hours, and the level of pAKT, AKT, pERK, ERK, and β-actin of these cells was assessed by western blotting in the same manner as Example 8.
as §2
A375 cells were treated in a medium in which a concentration of Interleukin-6 (IL-6) (manufactured by Novus Biologicals) was 0, 10, or 20 ng/mL for 24 hours, and then western blotting was performed to assess the level of ZIC5, pro-PDGFD, pSTAT3, STAT3, and GAPDH. […]

Molecule	percentage of Annexin V-positive cells, drug treatment of siZIC5- vs siNeg-transfected cells [1]	expression level of ZIC5 [4]	level of STAT3 [5]	expression level of pSTAT3 [6]	other results
N#CC(=C(/N)Sc1ccccc1N)/C(C#N)=C(/N)Sc1ccccc1N [UO126]	the same results were obtained	–	–	–	–
C[C@H](NC(=O)/C(C#N)=C/c1cccc(Br)n1)c1ccccc1 [WP1066, reference compound]	–	decreased in accordance with a concentration of the Stat3 inhibitor	not changed	decreased in accordance with a concentration of the Stat3 inhibitor	suppression of apoptosis by Zic5 [2]: completely suppressed; expression level of pro-PDGFD [3]: decreased in accordance with a concentration of the Stat3 inhibitor
C[C@@H](N)[C@H]1CC[C@H](C(=O)Nc2ccncc2)CC1 [Y27632, reference compound]	–	–	–	–	band of ppMLC2 [7]: hardly detected; increase of migrated cells by Zic5 gene overexpression [8]: partially suppressed
O=C1[O][Pt]2([NH][C@@H]3CCCC[C@H]3[NH]2)[O]C1=O [oxaliplatin]	the same results were obtained	–	–	–	–
IL-6: Interleukin-6 (manufactured by Novus Biologicals)	–	increased in accordance with a concentration of the IL-6	not changed	increased in accordance with a concentration of the IL-6	level of pERK [9]: not changed
